Measured values from PubChem BioAssay AID1996.
Converted amounts (≈) assume the structure as drawn.

details: buffer; pH 7.4; 200.0 µM

Row | SMILES | solubility kinetic
1 | Cc1ccc(C23CC4CC(CC(C(=O)NC(C(=O)O)C(C)C)(C4)C2)C3)cc1 (stereo not drawn) | 48.1 µg/mL (≈ 130 µM)
2 | Cc1nc2ccc(Br)cc2c(-c2ccccc2)c1C(=O)O | > 51.3 µg/mL
3 | COc1ccc(NC(=O)CNC(=O)Cc2ccccc2)cc1OC | > 49.3 µg/mL
4 | Cc1ccc(CNC(=O)Nc2ccc(Cl)cc2)cc1 | < 0.3 µg/mL
5 | COCCN1C(=O)c2ccc(C(=O)NCc3ccco3)cc2C1=O | > 49.2 µg/mL
6 | Cc1ccc(NC(=O)O/N=C/c2ccc(N(C)C)cc2)cc1 | 1.1 µg/mL (≈ 3.7 µM)
7 | COc1ccc(NC(=O)c2cc3ccccc3[nH]2)cc1 | 1.5 µg/mL (≈ 5.63 µM)
8 | Cc1csc(=O)n1CC(=O)Nc1ccc(Cl)c(Cl)c1 | 9.7 µg/mL (≈ 30.6 µM)
9 | CC(NC(=O)c1cccc(F)c1)C1CC2CCC1C2 (stereo not drawn) | 19.9 µg/mL (≈ 76.1 µM)
10 | N#Cc1ccccc1NC(=O)COc1ccc2c(c1)OCO2 | 17.1 µg/mL (≈ 57.7 µM)
11 | CN(C)C1(CN=Cc2cc(Cl)cc([N+](=O)[O-])c2O)CCCCC1 | > 51 µg/mL
12 | Cc1ccnc(NC(=O)c2cc3cc(F)ccc3s2)c1 | 5.2 µg/mL (≈ 18.2 µM)
13 | Cc1ccc(NS(=O)(=O)c2c(C)[nH]c(=O)[nH]c2=O)cc1F | > 47 µg/mL
14 | COc1cccc(CNc2ccc3c(c2)nc(C)n3C)c1OC | 44.8 µg/mL (≈ 144 µM)
15 | CCC(=O)N1CCN(c2ccc(NC(=O)c3ccc4ccccc4c3)cc2)CC1 | < 0.3 µg/mL
16 | O=C(CSc1nccc(=O)[nH]1)NC1CCCCCCC1 | > 44.3 µg/mL
17 | CC(C)(C)CC(=O)NC(=S)NCc1ccco1 | 9.3 µg/mL (≈ 36.6 µM)
18 | COC(=O)c1ccc(/C=C/C(=O)OCC(=O)c2ccc[nH]2)cc1 | 6.8 µg/mL (≈ 21.7 µM)
19 | CC1(C)CC(=O)C2=C(C1)NC(=O)NC2c1ccccc1 (stereo not drawn) | 39.9 µg/mL (≈ 148 µM)
20 | O=C(CCN1N=C(c2ccccc2)CCC1=O)NC1CCCC1 | > 47 µg/mL
21 | COc1cc(CC2C(=O)Nc3ccccc32)cc(C)c1O (stereo not drawn) | > 42.5 µg/mL
22 | CCOC(=O)C1CCCN(Cc2cc(=O)oc3cc(C)ccc23)C1 (stereo not drawn) | 40.5 µg/mL (≈ 123 µM)
23 | Cc1ccc(NC(=O)OCc2cncs2)cc1 | > 37.2 µg/mL
24 | NS(=O)(=O)c1cccc(NC(=O)CSc2nnc(-c3ccccc3)o2)c1 | > 58.6 µg/mL

Row | SMILES | solubility kinetic
25 | O=S(=O)(Nc1ccncc1Cl)c1cccc(Cl)c1Cl | > 50.6 µg/mL
26 | Cl.O=C(c1cc2c(s1)CCCC2)N1CCN(CCO)CC1 | > 49.6 µg/mL
27 | Cc1ccc(S(=O)(=O)n2c(C)nc3ccccc32)cc1 | 2.2 µg/mL (≈ 7.68 µM)
28 | CC12CN(C(=O)c3cccc([N+](=O)[O-])c3)C3(C#N)CC1CCC23C (stereo not drawn) | 45.3 µg/mL (≈ 139 µM)
29 | CCn1ccnc1CN(C)Cc1nc(-c2ccccc2)no1 | 31.7 µg/mL (≈ 107 µM)
30 | Cn1c(=O)c2[nH]c(C3CCCC3)nc2n(C)c1=O | > 37.2 µg/mL
31 | Cc1ccc(C)c(N(CC(=O)N2CCCCCC2)S(C)(=O)=O)c1 | 46.9 µg/mL (≈ 139 µM)
32 | CCCc1ccc2oc(C(=O)N(C)Cc3cnccn3)c(C)c2c1 | 26.8 µg/mL (≈ 82.9 µM)
33 | CCOP(=O)(Cc1ccc(C#N)o1)OCC | > 36.5 µg/mL
34 | CC(=O)Nc1ccc(CN2CCCN(C)CC2)cc1 | 29.2 µg/mL (≈ 112 µM)
35 | O=c1cc(O)nc[nH]1 | > 16.8 µg/mL
36 | O=C(CCC(=O)c1ccc(Br)cc1)Nc1ccc(F)cc1 | < 0.7 µg/mL
37 | CCOC(=O)C1CCN(C(=O)C(C)Sc2nnc3ccccn23)CC1 (stereo not drawn) | > 54.4 µg/mL
38 | COC(=O)c1cc(NC(=O)COC(=O)CCc2nc3ccccc3c(=O)[nH]2)cc(C(=O)OC)c1 | 18 µg/mL (≈ 38.5 µM)
39 | COc1ccc(OC)c(CNc2c(C=O)c(=O)[nH]c3ccccc23)c1 | < 0.4 µg/mL
40 | FC(F)(F)Oc1ccc(NC2=NCCCS2)cc1 | 41.4 µg/mL (≈ 150 µM)
41 | CCN(CC(=O)Nc1ccc2c(c1)OCCO2)C(=O)c1ccccc1Br | > 62.9 µg/mL
42 | COC(=O)c1ccc(N2CCN(C(C)=O)CC2)c(NC(=O)c2cccnc2)c1 | > 57.4 µg/mL
43 | COc1ccc(NC(=O)CNCc2ccc(Cl)cc2)cc1S(=O)(=O)N1CCOCC1.O=C(O)C(=O)O | > 81.6 µg/mL
44 | CCOC(=O)C1=C(C)NC(C)=C(C(=O)OCC)C1C(=O)OCC(=O)N1CCC(C)CC1 | 15.9 µg/mL (≈ 36.4 µM)
45 | Fc1c(F)c(F)c(NC2=NCCCCC2)c(F)c1F | > 41.7 µg/mL
46 | N#Cc1ccc(Oc2cnccn2)cc1 | > 29.6 µg/mL
47 | Cc1ccc(NS(=O)(=O)c2ccc3[nH]c(=O)[nH]c3c2)c(C)c1 | 5 µg/mL (≈ 15.8 µM)
48 | CCc1c(O)nc(SCC(=O)N(CC)CC)[nH]c1=O | > 42.8 µg/mL

Row | SMILES | solubility kinetic
49 | Cc1cccc(C(CC(=O)N2CCCCC2)c2ccccc2)c1O (stereo not drawn) | 0.8 µg/mL (≈ 2.47 µM)
50 | C=CCn1c(=S)[nH]c2cc(-c3ccccc3)sc2c1=O | < 0.3 µg/mL
51 | CCCCn1c(N)c(N(CC)C(=O)c2cccc(C)c2)c(=O)[nH]c1=O | > 51.7 µg/mL
52 | CNC(=S)N1CCc2cc(OC)c(OC)cc2C1 | > 40 µg/mL
53 | CCC(C(=O)Nc1cccnc1)c1ccccc1 (stereo not drawn) | 34.3 µg/mL (≈ 143 µM)
54 | Cc1ccc(-c2cc(C(=O)N3CCC4(CC3)OCCO4)no2)cc1 | 44 µg/mL (≈ 134 µM)
55 | CC(C)C(NC(=O)c1ccc(F)cc1)C(=O)NCC1CCCO1 (stereo not drawn) | > 48.4 µg/mL
56 | CCCCOC(=O)Nc1ccc(S(=O)(=O)Nc2nccs2)cc1 | 38.1 µg/mL (≈ 107 µM)
57 | O=C(NCCCn1ccnc1)c1ccc(-c2ccccc2)cc1 | > 45.8 µg/mL
58 | Cc1cccc(NC2=C(Cl)C(=O)OC2OC(=O)c2ccco2)c1 (stereo not drawn) | 35.1 µg/mL (≈ 105 µM)
59 | O=C(NCCc1ccc(F)cc1)N[C@@H](Cc1ccccc1)C(=O)O | > 49.6 µg/mL
60 | Cl.O=C(CN1CCCCC1)NC1CCc2cc3c(cc21)CCC3 (stereo not drawn) | 45.6 µg/mL
61 | COc1ccccc1S(=O)(=O)Nc1cccc(S(=O)(=O)N2CCCC2)c1 | > 59.5 µg/mL
62 | O=C(Cn1cccc(C(F)(F)F)c1=O)c1ccc(Cl)cc1 | > 47.4 µg/mL
63 | CC(=O)N1CC(C(=O)Nc2ccc3c(c2)OCO3)Oc2ccccc21 (stereo not drawn) | > 51.1 µg/mL
64 | Fc1ccc(Nc2c3c(nc4ccccc24)CCC3)cc1 | 33.1 µg/mL (≈ 119 µM)
65 | CC(C)N1CC(COc2ccc(Br)cc2)OC1=O (stereo not drawn) | 45.1 µg/mL (≈ 144 µM)
66 | CS(=O)(=O)c1ccc(NCC2CCCO2)c([N+](=O)[O-])c1 (stereo not drawn) | > 45 µg/mL
67 | COC(=O)c1oc(-c2ccc(Cl)cc2)nc1C | 2 µg/mL (≈ 7.95 µM)
68 | CCOC(=O)c1nc2ccccc2c(C)c1C.Cl | 25.3 µg/mL
69 | CS(=O)(=O)c1ccc(NCCN2CCOCC2)c([N+](=O)[O-])c1 | 44.4 µg/mL (≈ 135 µM)
70 | O=C(CCc1ccccc1)Nc1cc2c3c(c1)CCC(=O)N3CCC2 | 40.3 µg/mL (≈ 121 µM)
71 | COc1cc(F)ccc1S(=O)(=O)n1c(C)nc2ccccc21 | > 48.1 µg/mL
72 | O=C(CSc1cccc[n+]1[O-])c1cccs1 | 28 µg/mL (≈ 111 µM)

Row | SMILES | solubility kinetic
73 | Cc1ccc(NC(=O)COC(=O)CC2CC3CCC2C3)cc1S(=O)(=O)N1CCOCC1 (stereo not drawn) | 10.2 µg/mL (≈ 22.6 µM)
74 | O=C(O)CNc1ccc(S(=O)(=O)C(F)(F)F)cc1[N+](=O)[O-] | 44.7 µg/mL (≈ 136 µM)
75 | Cc1c(C)c2ccc(OCC(=O)Nc3cccnc3)cc2oc1=O | 1.3 µg/mL (≈ 4.01 µM)
76 | COc1ccc(/C=C2\C(=O)NCC(=O)N2C)cc1 | 11.4 µg/mL (≈ 46.3 µM)
77 | CCOC(=O)c1c(C)oc2c1c(C=NCCC(=O)O)c(O)c1ccccc12 | < 0.8 µg/mL
78 | CCOc1cc(N2CCOCC2)c(OCC)cc1NC(=O)CSc1ncccc1C(=O)O | > 69.2 µg/mL
79 | Cc1noc(C)c1-c1nc(CS(=O)(=O)c2ccc(F)cc2)no1 | 43.4 µg/mL (≈ 129 µM)
80 | CCCc1cc(C(=O)NC(C)C2CCCO2)cs1 (stereo not drawn) | > 40.1 µg/mL
81 | O=C(COC(=O)c1ccc(O)cc1)NC1CCCCCC1 | > 43.7 µg/mL
82 | COc1ccc(C(=O)NCCN2CCCC2)cc1[N+](=O)[O-] | > 44 µg/mL
83 | CC1(C)CC2CC(C)(CN2C(=O)COC(=O)c2ccc(NC(=O)CC#N)cc2)C1 (stereo not drawn) | 7.6 µg/mL (≈ 19.1 µM)
84 | Cc1ccc(NC(=O)CNC(=O)OCc2ccccc2)cc1C | 10.3 µg/mL (≈ 33 µM)
85 | Cc1ccc2nc(CCc3nc4ccc(C)cc4[nH]3)[nH]c2c1.Cl | 8.9 µg/mL
86 | COc1ccc(N(Cc2cc3cc(C)ccc3[nH]c2=O)C(C)=O)cc1 | 47 µg/mL (≈ 140 µM)
87 | Br.C=CCN1C2=NCCCN2c2ccccc21 | > 44.1 µg/mL
88 | CC(C)C(=O)Nc1nc2cc3c(cc2s1)OCCO3 | 37.4 µg/mL (≈ 134 µM)
89 | O=C(Nc1ccc(N2C(=O)CCC2=O)cc1Cl)c1cccs1 | > 50.2 µg/mL
90 | COC(=O)c1ccc(CNC(=O)CCC(=O)N2CCOCC2)cc1 | > 50.2 µg/mL
91 | O=C(CNC(=O)Cc1ccccc1)NCc1cccs1 | 41.9 µg/mL (≈ 145 µM)
92 | COc1ccccc1NS(=O)(=O)c1ccc2[nH]c(=O)[nH]c2c1 | > 47.9 µg/mL
93 | CCOC(=O)Cc1csc(NC(=O)Nc2ccc(OC(F)(F)F)cc2)n1 | 0.3 µg/mL (≈ 0.771 µM)
94 | O=c1c(Cl)c2oc3ccccc3nc-2c2ccccc12 | 4.2 µg/mL (≈ 14.9 µM)
95 | CC(Oc1ccc(Br)cc1)C(=O)NCCCN1CCCC1=O (stereo not drawn) | > 55.4 µg/mL
96 | COCc1cc(C)nc(Oc2ccccc2)c1C#N | > 38.1 µg/mL

Row | SMILES | solubility kinetic
97 | NC(=O)c1ccc(NC(=O)COC(=O)c2ccc3ccccc3n2)cc1 | 18.8 µg/mL (≈ 53.8 µM)
98 | COc1cc(NC(=O)Cn2c([N+](=O)[O-])cnc2C)c(OC)cc1Cl | 45.3 µg/mL (≈ 128 µM)
99 | Cc1ccc(C(=O)OCC(=O)NC2CCCC2)cc1C | 15.8 µg/mL (≈ 57.4 µM)
100 | O=C(Nc1ccc2c(c1)OCO2)c1noc2c1CCCC2 | 4.1 µg/mL (≈ 14.3 µM)
101 | CC(C)(C)C(=O)Nc1cc(NC(=O)C(C)(C)C)cc(C(=O)Nc2c[nH]c(=O)[nH]c2=O)c1 | 45.3 µg/mL (≈ 105 µM)
102 | CCOc1ccc(NC(=O)CCn2ccnc2)cc1 | > 38.9 µg/mL
103 | O=C(CCc1nc2ccccc2s1)Nc1cccnc1 | 32.6 µg/mL (≈ 115 µM)
104 | O=C1CNC(=O)N1 | > 15 µg/mL
105 | O=C(Nc1ccccc1Cl)c1ccc2nccnc2c1 | > 42.6 µg/mL
106 | O=C(Nc1cccnc1)c1ccc(Cl)c(Cl)c1 | 40 µg/mL (≈ 150 µM)
107 | CCn1cnc2cc(NCc3ccccc3Cl)ccc21 | > 42.9 µg/mL
108 | CCSc1nc2sc3c(c2c(=O)[nH]1)CC(C)(C)OC3 | 3.1 µg/mL (≈ 10.5 µM)
109 | Cc1ccc(NC(=O)N2CCCc3ccccc32)cc1C | 29 µg/mL (≈ 103 µM)
110 | O=C(/C=C/c1c(F)cccc1Cl)Nc1cccnc1 | 13.7 µg/mL (≈ 49.5 µM)
111 | O=C(Nc1ccccc1C(=O)NCCc1ccc(O)cc1)c1ccco1 | 24.2 µg/mL (≈ 69.1 µM)
112 | NC(=O)c1ccc(NC(=O)COC(=O)CC23CC4CC(CC(Br)(C4)C2)C3)cc1 | > 67.4 µg/mL
113 | CCN1C(=O)c2ccccc2Sc2ccc(C(=O)O)cc21 | > 44.9 µg/mL
114 | COc1ccc(-c2csc(N3CCSCC3)n2)cc1 | 0.3 µg/mL (≈ 1.03 µM)
115 | O=C(COC(=O)c1ccccc1Br)NC1CCCCCCC1 | 25.1 µg/mL (≈ 68.2 µM)
116 | O=[N+]([O-])c1ccccc1/C=C/CN1CCCCC1CO (stereo not drawn) | 34.3 µg/mL (≈ 124 µM)
117 | COc1cc(NC(=O)Cc2ccccc2)ccc1NC(=O)c1ccccc1 | < 0.4 µg/mL
118 | OC1(c2ccccn2)COc2ccccc2O1 (stereo not drawn) | 28.1 µg/mL (≈ 123 µM)
